Assay results as given in patent publication US20220243177A1, “METHODS OF CULTURING QUIESCENT HEMATOPOIETIC STEM CELLS AND TREATMENT METHODS” (priority 2019, published 2022).

How the values were obtained:
[1] = tested on: aged MMP-low and -high LT-HSCs transplanted into lethally irradiated mice; assay: Long-term in vivo competitive repopulation assay of aged HSCs after ex vivo ConA; parameters: species or system mouse
Procedure: FIGS. 21A-21C show repression of lysosomal activity ex vivo greatly improves in vivo competitive repopulation of old HSCs. FIG. 21A is a schematic of long-term in vivo competitive repopulation assay. FACS-sorted (5000) aged MMP-low and -high (CD45.2) long-term (LT) HSCs were cultured in vitro in DMSO control or Con A (40 nM) for 4 days after which 100 cells from each group were injected into lethally irradiated recipient (CD45.1) mice along with 2×10^5 CD45.1 total bone marrow competitor cells (n=7). FIG. 21B is a graph showing contribution of donor-derived (CD45.2) cells to the peripheral blood (PB) of primary recipient mice (CD45.1) in a long-term competitive repopulation assay. FIG. 21C is a graph showing lineage output as a percentage of total CD45.2 donor-derived cells in primary recipients. Data expressed as Mean±SEM (**P<0.01, ***P<0.001). Note only ConA-treated old HSCs and not control-treated HSCs generate over 1% chimerism in transplanted animals after 21 weeks.

[2] = tested on: bone marrow lineage-negative cells; assay: Lineage negative bone marrow cell culture, HSC frequency and MMP; assay type: cell-based, mouse; conditions: ConA 100 nM
Procedure: For measuring MMP and proliferation, lineage negative bone marrow (BM) cells were enriched with the EasySep Mouse hemato- poietic progenitor kit. Lineage negative (1 3 106) cells (isolated separately from four mice) were seeded onto 6 well plates in Stem-Span medium containing SCF (100 ng/ml) and TPO (20 ng/ml). Cells were treated with ConA (100nM) or the DMSO control and analyzed at 0, 6, 12 and 24 hour-time points by flow cytometry for HSC (LSKCD150+CD48−) frequencies or MMP-low and MMP- high HSCs frequencies or MMP (TMRE).

[3] = tested on: MMP-low and MMP-high HSCs; assay: Long term culture-initiating cell (LTC-IC) assay; assay type: cell-based, mouse
Procedure: Long Term Culture-Initiating Cell (“LTC-IC”) Assay: Long-term cultures were initiated as described in Lemieux et al., “Characterization and Purification of a Primitive Hematopoietic Cell Type in Adult Mouse Marrow Capable of Lymphomyeloid Differentiation in Long-Term Marrow ‘Switch’ Cultures,” Blood 86: 1339-1347 (1995), which is hereby incorporated by reference in its entirety. […] The frequency of long-term culture-initiated cells (“LTC-ICs”) was determined by limiting dilution and applying Poisson distribution statistics as described in Hu & Smyth, “ELDA: Extreme Limiting Dilution Analysis for Comparing Depleted and Enriched Populations in Stem Cell and Other Assays,” J. Immunol. Methods 347: 70-78 (2009), which is hereby incorporated by reference in its entirety.

[4] = tested on: MMP-low and MMP-high HSCs; assay: Glucose uptake assay (2NBDG); assay type: cell-based, mouse; conditions: ConA (25 nM, 50 nM), 18 hours
Procedure: Glucose Uptake Assay: For measurement of glucose uptake, freshly FACS-purified MMP-low and MMP-high HSCs (at least 2,000 cells pooled in average from 8 mice) were cultured immediately in […] of glucose, glutamine, pyruvate free medium containing 100 or 200 μM 2-(n-(7-nitrobenz-2-oxa-1,3-diazol-4-yl amino)-2-deoxyglucose (2-NBD-Glucose, 2NBDG) for 2 hours. Cells were then washed multiple times in PBS, re-suspended in PBS containing 1 μg/ml DAPI, and analyzed by flow cytometry for 2-NBD glucose fluorescence in the FITC channel. In some experiments cells were cultured in StemSpan medium (StemCell Technology) supplemented with SCF (100 ng/ml) and TPO (20 ng/ml), treated with or without STF-31 ([…]), ConA (25, 50 nM), dimethyl alpha ketoglutarate (MOG, 1 mM), methyl pyruvate (MP, 1 mM) or DMSO, incubated at 37° C. in a humidified atmosphere with 5% CO2 for 6 or 18 hours before removing culture medium from each well, washing extensively and adding […] of glucose, glutamine, pyruvate free medium containing […] of 2 NBDG for 2 hours before washing cells multiple times in PBS and analyzing by flow cytometry. Quantification of 2NBDG uptake was measured by the geometric mean fluorescence intensity (“MFI”) as well as % of 2NBDG^+ cells.

[5] = tested on: MMP-low and MMP-high LT-HSCs transplanted into lethally irradiated mice; assay: Competitive in vivo long-term reconstitution assay after ex vivo lysosomal inhibition; parameters: species or system mouse
Procedure: Competitive In Vivo Long-Term Reconstitution Assay: MMP-low and MMP-high HSCs (LSKCD150^+CD48^−, LT-HSC; MMP^low/high) were FACS purified from CD45.1 mice and transplanted at the indicated dose of test cells with 2×10^5 CD45.2 bone marrow cells into lethally irradiated CD45.2 recipients (12 Gy as a split dose, 6.5 and 5.5 Gy, 4 hours apart). Donor (CD45.1) and recipient (CD45.2) mice were 8-12 weeks old. HSC frequency was determined by the limiting dilution assay (Hu & Smith, “ELDA: Extreme Limiting Dilution Analysis for Comparing Depleted and Enriched Populations in Stem Cell and Other Assays,” J. Immunol. Methods 347:7 0-78 (2009), which is hereby incorporated by reference in its entirety) based on the number of mice with […] reconstitution (CD45.1) at 16 weeks.
To assay the effect of HSC lysosomal inhibition in a in vivo competitive long-term reconstitution assay: FACS-sorted MMP-low and -high LT-HSCs (CD45.1) were treated with Concanamycin A (ConA,40 nM) or DMSO control in 96 well plates containing StemSpan with SCF (100 ng/ml) and TPO (20 ng/ml) for 4 days, after which 50 cells from each group were mixed with 2×10^5 CD45.2 total bone marrow cells and injected into lethally irradiated CD45.2 recipients and reconstituted peripheral blood was monitored up to four months.

[6] = aged HSCs, Con A 40 nM, two days
[7] = ConA 40 nM ex vivo 4 days, 50 cells transplanted

How did the “lineage output of aged MMP-high HSCs” value ([1]; 4-day cultured, Con A 40 nM) turn out when `C/C=C/[C@H]1O[C@@](O)([C@@H](C)[C@H](O)[C@H](C)[C@H]2OC(=O)/C(OC)=C/C(C)=C/[C@@H](C)[C@@H](O)[C@@H](CC)[C@@H](O)[C@H](C)C/C(C)=C/C=C/[C@@H]2OC)C[C@@H](O[C@H]2C[C@@H](O)[C@H](OC(N)=O)[C@@H](C)O2)[C@@H]1C` [ConA, concanamycin A] was run?
The value was “balanced their lineage output”.

What about the “competitive repopulation ability of aged MMP-high HSCs” value ([1]; 4-day cultured, Con A 40 nM, 100 cells) of the same compound?
The value was “remarkably improved”.

What about the “self-renewal of old HSCs and their balance blood production” value ([1]; ex vivo ConA treatment (FIG. 19 and FIG. 20)) of the same compound?
The value was “improves significantly”.

What about the “self-renewal of aged HSCs in secondary transplants” value ([1]; mice receiving control-treated HSCs died) of the same compound?
Its value is “improved self-renewal in secondary transplants”.

What about the “survival of recipients in secondary transplantation” value ([1]; old HSCs, 4-day ex vivo ConA, not control-treated) of the same compound?
The value was “survive in secondary transplantation”.

What about the “chimerism in transplanted animals” value ([1]; old HSCs, after 21 weeks, control-treated HSCs do not) of the same compound?
The value was “over 1%”.

And the “MMP in recovered cells” value ([2]; 12-24 hours)?
The value was “relative decrease of MMP”.

And the “frequency of HSCs recovered from 24-hour in vitro culture” value ([2]; 24 hours)?
Its value is “improved frequency”.

And the “retention of the MMP-low HSC fraction” value ([2]; twenty-four-hour)?
Its value is “greater retention”.

What about the “enhanced frequency of LTC-ICs, MMP-high HSCs” value ([3]; ConA 40 nM, 48-hour or 4-day) of the same compound?
The value was 2.5 fold.

And the “enhanced frequency of LTC-ICs, MMP-low HSCs” value ([3]; ConA 40 nM, 48-hour or 4-day)?
Its value is 1.5 fold.

And the “size of LTC-IC-derived colonies” value ([3]; ConA 40 nM, two days)?
Its value is “increased size of colonies”.

What about the “LTC-IC-derived colonies from aged HSCs” value [3, 6] of the same compound?
The value was “increased the LTC-IC-derived colonies”.

And the “number of LTC-IC recovered from aged HSC cultures” value [3, 6]?
The value was “improved the number”.

And the “decrease of glucose uptake in MMP-high HSCs” value [4]?
The value was 19 fold.

And the “effect on reducing the viability under the glucose uptake condition” value [4]?
Its value is “mostly restricted to MMP-high and subtle in MMP-low HSCs”.

What about the “blood production in secondary transplants” value ([5]; 38 weeks post-initial transplantation) of the same compound?
The value was “increased balanced blood production”.

What about the “production of lineages downstream of MMP-high HSCs” value ([5]; ConA 40 nM ex vivo 4 days) of the same compound?
The value was “balanced the production of lineages”.

What about the “increase of in vivo competitive repopulation ability, MMP-high HSCs” value [5, 7] of the same compound?
Its value is “over 90 fold”.

And the “increase of in vivo competitive repopulation ability, MMP-low HSCs” value [5, 7]?
The value was 9 fold.

What about the “HSC self-renewal in secondary transplantations” value ([5]; young HSCs, ex vivo ConA) of the same compound?
The value was “increased HSC self-renewal”.
